In PMC10745061 (Marine Drugs, 2023):
Where a SMILES comes first, the peptide text is derived from it. Bridges are numbered along the chain shown (N, C = ends).

Key:
[1] = system: E. coli ATCC 25922; details: BALB/c mice, n = 5, i.p. infection 10^6 CFU with 2.5% mucin; 10 mg/kg i.p. at 1 h and 4 h after infection; 7 days
[2] = system: Escherichia coli ML-35p; details: salt-containing MHB, FBS at different concentrations up to 15%
From the text: The results were expressed as the median values determined on the basis of at least three independent experiments performed in triplicate.

[3] = system: human red blood cells (hRBCs); assay: Hemolysis, hemoglobin release assay; format: cell-based; details: hemoglobin release assay, 2 h incubation, two independent donors
Protocol: Figure 3 Biological activity of the peptides towards human cells. (A) Hemolytic effect on human red blood cells (hRBCs) after 2 h incubation (the hemoglobin release assay). (B) Cytotoxicity towards transformed human embryonic kidney cells (HEK293T) after 16 h incubation (the resazurin assay).
The hemolytic activity of the peptides was tested against the fresh suspension of human red blood cells (hRBC) using the hemoglobin release assay, as described previously. Two experiments were performed with hRBC from blood samples of independent donors. The quantitative data are represented as average means with standard deviations. The cytotoxic effect of the peptides was tested on transformed human embryonic kidney cells (HEK293T) using the resazurin assay. The technique is based on the ability of live cell dehydrogenases to reduce a blue resazurin to pink and fluorescent resorufin. A total of 10^4 cells per well in Dulbecco’s modified Eagle’s medium (DMEM/F12) supplemented with 10% FBS were placed into 96-well plates for 24 h in the CO2-incubator (5% CO2, 37 °C). […] Fluorescence of the formed resorufin was measured with the microplate reader AF2200 (Eppendorf, Germany) using the following channel: λExc = 535 nm, λEm = 595 nm. The fluorescence signal in the wells containing cells cultured without the peptides was assumed to represent 100% cell viability. […]

[4] = system: E. coli MDR CI 1057; details: 37 °C
Protocol: Resistance induction experiments were performed using the previously described method. Briefly, on day one, the overnight culture of wild-type bacteria was diluted with the 2× MH broth supplemented with 1.8% NaCl to reach a final cell concentration of 10^6 CFU/mL.

CC[C@H](C)[C@@H]1NC(=O)[C@H](Cc2c[nH]c3ccccc23)NC(=O)[C@H](C(C)C)NC(=O)[C@@H]2CSSC[C@H](NC(=O)[C@H](CCCNC(=N)N)NC(=O)[C@H](CCCNC(=N)N)NC(=O)[C@H](C(C)C)NC(=O)[C@H](CCCNC(=N)N)NC(=O)[C@H](CCCNC(=N)N)NC(=O)CNC(=O)[C@H](CC(N)=O)NC(=O)[C@H](C(C)C)NC(=O)[C@H](CO)NC1=O)C(=O)N[C@@H](Cc1c[nH]c3ccccc13)C(=O)NCC(=O)N[C@@H](CO)C(=O)NCC(=O)N[C@H](C(=O)O)CSSC[C@H](NC(=O)CNC(=O)[C@H](CCCNC(=N)N)NC(=O)[C@@H]1CCCN1C(=O)[C@@H](N)CO)C(=O)N[C@@H](Cc1ccccc1)C(=O)N2 [HfBRI-25] (H-SPRGCFCVWISVNGRRVRRCWGSGC-OH; disulfide 5-25, 7-20; N-terminus and C-terminus assumed)
Survival / therapeutic efficacy [1]: 100% | MIC in the presence of FBS at different concentrations [2]: 1 µM | Hemolytic effect on human red blood cells [3]: absence of hemolytic and cytotoxic properties | Change of MIC value after resistance selection ([4]; 21 passages (days) in the presence of the agent, MHB + 0.9% NaCl): two-fold | Initial MIC value before resistance selection ([4]; Mueller–Hinton broth supplemented with 0.9% NaCl): 1 µM
